Assay results as given in patent US9024041B2, “P38 MAP kinase inhibitors” (Respivert Ltd., priority 2010, dated 2015).

Legend:
[1] = target: T1, p38 MAPKα isoform (MAPK14: Invitrogen) (Homo sapiens, UniProt Q16539); assay: p38 MAPKα enzyme inhibition assay (FRET, Z-LYTE, via MAPKAP-K2 activation); format: biochemical; details: 2 hr pre-incubation, ATP 10.0 μM; read-out: Enzyme Inhibition IC50 p38α
T1 construct: purchased Invitrogen
Description: (§3) The enzyme inhibitory activities of compounds disclosed herein were determined by fluorescence resonance energy transfer (FRET) using synthetic peptides labelled with both donor and acceptor fluorophores (Z-LYTE, Invitrogen Ltd., Paisley, UK). Recombinant, phosphorylated p38 MAPKγ (MAPK12:Invitrogen) was diluted in HEPES buffer, mixed with the test compound at the desired final concentrations and incubated for 2 hr at RT. The FRET peptide (2 μM) and ATP (100 μM) were added to the enzyme/compound mixture and incubated for 1 hr. Development reagent (protease) was added for 1 hr prior to detection in a fluorescence microplate reader (Varioskan® Flash, ThermoFisher Scientific). The site-specific protease cleaves non-phosphorylated peptide only and eliminates the FRET signal. Phosphorylation levels of each reaction were calculated using the ratio of coumarin emission (donor) over fluorescein emission (acceptor) for which high ratios indicate high phosphorylation and low ratios indicate low phosphorylation levels.
For the p38 MAPKα isoform (MAPK14: Invitrogen), enzyme activity was evaluated indirectly by determining the level of activation/phosphorylation of the down-stream molecule, MAPKAP-K2. The p38 MAPKα protein was mixed with the test compound for 2 hr at RT. […] Development reagent was then added and the mixture incubated for 1 hr before detection by fluorescence completed the assay protocol.

[2] = target: T2, Recombinant, phosphorylated p38 MAPKγ (MAPK12:Invitrogen) (Homo sapiens, UniProt P53778); assay: p38 MAPKγ enzyme inhibition assay (FRET, Z-LYTE); format: biochemical; details: 2 hr pre-incubation, ATP 100 μM; read-out: Enzyme Inhibition IC50 p38γ
T2 construct: purchased Invitrogen
T2 sequence (P53778 1-367): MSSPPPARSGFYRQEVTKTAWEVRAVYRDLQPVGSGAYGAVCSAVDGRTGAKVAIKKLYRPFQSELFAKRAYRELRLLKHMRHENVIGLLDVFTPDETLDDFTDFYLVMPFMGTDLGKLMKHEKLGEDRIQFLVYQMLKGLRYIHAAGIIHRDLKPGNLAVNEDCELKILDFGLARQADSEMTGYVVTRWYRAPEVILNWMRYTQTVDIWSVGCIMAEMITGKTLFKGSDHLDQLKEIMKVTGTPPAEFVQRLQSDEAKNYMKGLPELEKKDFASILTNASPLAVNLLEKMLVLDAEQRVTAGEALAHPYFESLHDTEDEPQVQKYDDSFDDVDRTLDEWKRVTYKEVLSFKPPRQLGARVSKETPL
Description: as §3

[3] = tested on: LPS-induced TNFα release in THP-1 cells; assay: LPS-induced TNFα release in THP-1 cells; format: cell-based; details: Homo sapiens, 3 μg/mL LPS, 4 hr
Description: Cellular Potency as Determined by LPS-Induced TNFα Release in THP-1 Cells
THP-1 cells, a human monocytic cell line, were stimulated with 3 μg/mL of LPS (from E. Coli; 0111:B4, Sigma) for 4 hr and the supernatant collected for determination of the TNFα concentration by sandwich ELISA (Duo-set, R&D systems). The inhibition of TNFα production was calculated at each concentration by comparison with vehicle control. The 50% inhibitory concentration (IC50) was determined from the resultant concentration-response curve.

[4] = tested on: LPS-induced TNFα release in d-U937 cells; assay: LPS-induced TNFα release in d-U937 cells; format: cell-based; details: Homo sapiens, dU937, 4 h; read-out: LPS/TNFα REC50 d-U937
Description: (§1) Cellular Potency as Determined by LPS-Induced TNFα/IL-8 Release in d-U937Cells
(§2) U937 cells, a human monocytic cell line, were differentiated to macrophage-type cells by incubation with phorbol myristate acetate (PMA; 100 ng/mL) for 48 to 72 hr. Cells were pre-incubated with final concentrations of test compound for 2 hr and were then stimulated with 0.1 μg/mL of LPS (from E. Coli: O111:B4, Sigma) for 4 hr. The supernatant was collected for determination of TNFα and IL-8 concentrations by sandwich ELISA (Duo-set, R&D systems). […] The relative 50% effective concentration (REC50) was determined from the resultant concentration-response curve. The inhibition of IL-8 production was calculated at each concentration of test compound by comparison with vehicle control. The 50% inhibitory concentration (IC50) was determined from the resultant concentration-response curve.

[5] = tested on: LPS-induced IL-8 release in d-U937 cells; assay: LPS-induced IL-8 release in d-U937 cells; format: cell-based; details: Homo sapiens, dU937, 0.1 μg/mL LPS, 4 hr
Description: as §1, §2

[6] = tested on: Poly I:C-induced ICAM-1 expression in BEAS2B cells; assay: Poly I:C-induced ICAM-1 induction in BEAS2B cells; format: cell-based; details: Homo sapiens, BEAS-2B, poly I:C 1 μg/mL, 18 hr, read-out: PolyI:C/ICAM1 IC50 BEAS2B
Description: Cellular Potency as Determined by Poly I:C-Induced ICAM-1 Induction in BEAS2B Cells
Poly I:C (1 μg/mL) (Invivogen Ltd., San Diego, Calif.) was transfected into BEAS2B cells (human bronchial epithelial cells, ATCC) with Oligofectamine (Invitrogen, Carlsbad, Calif.). Cells were pre-incubated with final concentrations of test compounds for 2 hr and the level of ICAM1 expression on the cell surface was determined by cell-based ELISA. At a time point 18 hr after poly I:C transfection, cells were fixed with 4% formaldehyde in PBS and then endogenous peroxidase was quenched by the addition of 0.1% sodium azide and 1% hydrogen peroxide. Cells were washed with wash-buffer (0.1% Tween in PBS: PBS-Tween). and after blocking the wells with 5% milk in PBS-Tween for 1 hr, the cells were incubated with anti-human ICAM-1 antibody (Cell Signaling Technology, Danvers, Mass.) in 1% BSA PBS overnight at 4° C. The cells were washed with PBS-Tween and incubated with the secondary antibody (HRP-conjugated anti-rabbit IgG, Dako Ltd., Glostrup, Denmark). The ICAM-1 signal was detected by adding substrate and reading the absorbance at 450 nm against a reference wavelength of 655 nm using a spectrophotometer. The cells were then washed with PBS-Tween and total cell numbers in each well were determined by reading absorbance at 595 nm after Crystal Violet staining and elution by 1% SDS solution. The measured OD 450-655 readings were corrected for cell number by dividing with the OD595 reading in each well. The inhibition of ICAM-1 expression was calculated at each concentration of test compound by comparison with vehicle control. The 50% inhibitory concentration (IC50) was determined from the resultant concentration-response curve.

[7] = tested on: Differentiated U937 cells; assay: MTT assay: cell viability on exposure to test compounds; format: cell-based, human; details: percentage loss of cell viability vs vehicle, 1 μg/mL; for MTT Assay (Viability) 4 h d-U937: 5% FCS; for MTT Assay (Viability) 24 h d-U937: 10% FCS
Description: MTT Assay: Determination of Cell Viability on Exposure to Test Compounds
Differentiated U937 cells were pre-incubated with each test compound under two protocols: the first for 4 hr in 5% FCS and the second in 10% FCS for 24 h. The supernatant was replaced with 200 μL of new media and 10 μL of MTT stock solution (5 mg/mL) was added to each well. After incubation for 1 hr the media were removed, 200 μL of DMSO was added to each well and the plates were shaken lightly for 1 hr prior to reading the absorbance at 550 nm. The percentage loss of cell viability was calculated for each well relative to vehicle (0.5% DMSO) treatment. Consequently an apparent increase in cell viability for drug treatment relative to vehicle is tabulated as a negative percentage.

T1 sequence (Q16539 whole entry, canonical isoform): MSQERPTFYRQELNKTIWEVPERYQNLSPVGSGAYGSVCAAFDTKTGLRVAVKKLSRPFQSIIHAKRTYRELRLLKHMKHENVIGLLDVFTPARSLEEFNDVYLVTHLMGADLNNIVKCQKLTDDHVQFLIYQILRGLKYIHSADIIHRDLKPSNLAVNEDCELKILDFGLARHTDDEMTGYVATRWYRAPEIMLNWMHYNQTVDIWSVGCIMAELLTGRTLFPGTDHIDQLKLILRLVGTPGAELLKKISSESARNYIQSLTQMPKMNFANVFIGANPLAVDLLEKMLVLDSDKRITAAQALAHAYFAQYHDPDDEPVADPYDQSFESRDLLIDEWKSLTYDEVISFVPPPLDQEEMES

| IC50 [1] [nM] | IC50 [2] [nM] | IC50 [3] [nM] | EC50 [4] [nM] | IC50 [5] [nM] | Compound | IC50 [6] [nM] | MTT Assay (Viability) 4 h d-U937 [7] [%] | MTT Assay (Viability) 24 h d-U937 [7] [%] |
| --- | --- | --- | --- | --- | --- | --- | --- | --- |
| 0.9 | 72.4 | 1 | 0.6 | 1 | COCC(=O)Nc1cc(Oc2ccc(NC(=O)Nc3cc(C(C)(C)C)nn3-c3ccc(N)cc3)c3ccccc23)ccn1 [Example 1, N-(4-(4-(3-(1-(4-Aminophenyl)-3-tert-butyl-1H-pyrazol-5-yl)ureido)naphthalen-1-yloxy)pyridin-2-yl)-2-methoxyacetamide] | 8.3 | −26.6 | 78.0 |
| 13 | 42.3 | 1.3 | 0.4 | 7.2 | COCC(=O)Nc1cc(Oc2ccc(NC(=O)Nc3cc(C(C)(C)C)nn3-c3ccc(NS(C)(=O)=O)cc3)c3ccccc23)ccn1 [Example 2, N-(4-(4-(3-(3-tert-Butyl-1-(4-(methylsulfonamido)phenyl)-1H-pyrazol-5-yl)ureido)naphthalen-1-yloxy)pyridin-2-yl)-2-methoxyacetamide] | 4.1 | −13.2 | 15.1 |
| 3.4 | 3010 | 0.9 | – | 0.7 | COCC(=O)Nc1cc(Oc2ccc(NC(=O)Nc3cc(C4(C)CC4)nn3-c3ccc(C)cc3)c3ccccc23)ccn1 [Example 25, 2-methoxy-N-(4-(4-(3-(3-(1-methylcyclopropyl)-1-p-tolyl-1H-pyrazol-5-yl)ureido)naphthalen-1-yloxy)pyridin-2-yl)acetamide] | 21.8 | −7.6 | 4.7 |
| 11.3 | 324 | 1.6 | – | 1.9 | CC(C)(C)c1cc(NC(=O)Nc2ccc(Oc3ccnc(NC(=O)N4CCCC4)c3)c3ccccc23)n(-c2ccc(O)cc2)n1 [Example 35, N-(4-(4-(3-(3-tert-butyl-1-(4-hydroxyphenyl)-1H-pyrazol-5-yl)ureido)naphthalen-1-yloxy)pyridin-2-yl)pyrrolidine-1-carboxamide] | 2.1 | −15.4 | −41.3 |
| 11.9 | 149 | 1.6 | – | 38.7 | COCC(=O)Nc1cc(Oc2ccc(NC(=O)Nc3cc(C(C)(C)C)nn3-c3ccc(CO)c(OC)c3)c3ccccc23)ccn1 [Example 51, N-(4-(4-(3-(3-tert-butyl-1-(4-(hydroxymethyl)-3-methoxyphenyl)-1H-pyrazol-5-yl)ureido)naphthalen-1-yloxy)pyridin-2-yl)-2-methoxy acetamide] | 2.5 | −5.2 | 61.0 |
| 6.6 | 55 | 0.6 | – | 0.5 | COCC(=O)Nc1cc(Oc2ccc(NC(=O)Nc3cc(C(C)(C)C)nn3-c3cccs3)c3ccccc23)ccn1 [Example 56, N-(4-(4-(3-(3-tert-butyl-1-(thiophen-2-yl)-1H-pyrazol-5-yl)ureido)naphthalen-1-yloxy)pyridin-2-yl)-2-methoxyacetamide] | 13.4 | 4.8 | 43.1 |

| Compound | IC50 [1] [nM] | IC50 [2] [nM] | IC50 [3] [nM] | EC50 [4] [nM] | IC50 [5] [nM] | IC50 [6] [nM] | MTT Assay (Viability) 4 h d-U937 [7] [%] | MTT Assay (Viability) 24 h d-U937 [7] [%] |
| --- | --- | --- | --- | --- | --- | --- | --- | --- |
| CN(C)C(=O)Nc1cc(Oc2ccc(NC(=O)Nc3cc(C(C)(C)C)nn3-c3ccc(S(C)(=O)=O)cc3)c3ccccc23)ccn1 [Example 15, 3-(4-(4-(3-(3-tert-Butyl-1-(4-(methylsulfonyl)phenyl)-1H-pyrazol-5-yl)ureido)naphthalen-1-yloxy)pyridin-2-yl)-1,1-dimethylurea] | 23.6 | 81.5 | 1.5 | – | 2.4 | 16.3 | −15.4 | −66.2 |
